Measurements from US11498928B2, “Macrocyclic spiroethers as Mcl-1 inhibitors” (ASCENTAGE PHARMA (SUZHOU) CO., LTD., priority 2019, dated 2022).
Where two headings read alike, the source gives them in different places.

What was measured:
[1] = from CC(=O)OC(C1=C[C@H]([C@H](C)[C@@H](C)S(N)(=O)=O)C1)[C@@H]1CC[C@H]1CN1C[C@@]2(CCCc3c2ccc(Cl)c3F)COc2ccc(C(=O)O)nc21; amide bond; T3P, DIPEA, DMAP; DCM; 24.6 mM; 2.0 h
[2] = system: NCI-H929 cells; test: Cell viability assay (NCI-H929 cells), CCK-8; assay type: cell-based; conditions: 5% FBS
Outline: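 Viability of NCI-H929 cells was measured using the Cell Counting Kit-8. After 24 hrs of compound exposure, 10 μL of CCK-8 solution per well was incubated for 1-4 hours, and absorbance was read at 450 nm on a BioTek Synergy 1MF. Readings were normalized to vehicle (DMSO) cells, and IC50 values were derived by nonlinear regression in GraphPad Prism 6.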

[3] = system: OPM-2 cells; test: Cell viability assay (OPM-2 cells), CCK-8; assay type: cell-based; conditions: 5% FBS
Outline: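 Viability read by CCK-8 absorbance (450 nm, 4 h reagent incubation) after 24 h compound exposure of 20000 OPM-2 cells per well at 37 °C. IC50 fitted by nonlinear regression on vehicle-normalized signal.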

[4] = target: T1, Mcl-1 protein (residues 171-323) (Homo sapiens, UniProt Q07820); test: Inhibition of Mcl-1 by fluorescence polarization (FP) competitive binding assay with FAM-Bid tracer; conditions: 2 nM FAM-Bid, 20 nM Mcl-1, 30 min
T1 construct: Tag-free Mcl-1 protein (residues 171-323) was used in the FP assay
Outline: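 Ten-point compound titrations compete against 2 nM fluorescein-Bid for 20 nM Mcl-1 (171-323, untagged). Incubation 30 min RT in PBS buffer with BGG and Triton, 5% DMSO final. mP reduction fitted by sigmoidal nonlinear regression for IC50.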

[5] = Pharmacokinetic studies in mice (IV and PO); assay type: in vivo; conditions: for F: PO 10 mg/kg vs IV 2 mg/kg; for AUC(0-inf) / AUC(0-t) / clearance / half-life / Cmax / MRT last / Vd / Tmax / Vd/F: mouse, plasma; for MRT last: read-out: MRT0-last; for Vd: read-out: Vss; for Vd/F: read-out: Vz/F
Description: Administration: Mice in the IV group was dosed at 2 mg/kg (20% PEG 400+10% Cremophor EL+70% PBS 7.4) via tail vein injection (N=9). Mice in the PO group was dosed at 10 mg/kg (20% PEG 400+10% Cremophor EL+70% PBS 7.4) via oral gavage (N=9). All the mice were fasted overnight before dosing and had free access to food 4 hr post dosing.
Sampling: The animal was restrained manually at the designated time points (0.083, 0.25, 0.5, 1, 2, 4, 6, 8 and 24 hr), approximately 110 μL of blood sample was collected via retro-orbital puncture or cardiac puncture for terminal bleeding under the anesthesia with Isoflurane inhalation into K2EDTA tubes. The blood samples were maintained in wet ice first and centrifuged to obtain plasma (2000 g, 4° C., 5 min) within 15 minutes post sampling. All the plasma samples were stored at approximately −70° C. until analysis.

[6] = IV 2 mg/kg, read-out: C0/Cmax (C0)
[7] = PO 10 mg/kg, read-out: C0/Cmax (Cmax)

T1 sequence (Q07820 171-323): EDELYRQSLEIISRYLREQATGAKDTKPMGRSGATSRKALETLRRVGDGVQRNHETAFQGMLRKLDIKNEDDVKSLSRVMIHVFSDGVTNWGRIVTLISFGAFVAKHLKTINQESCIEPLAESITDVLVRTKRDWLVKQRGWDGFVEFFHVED

Row | SMILES | IC50 ([2]; Homo sapiens, NCI-H929, 24 h) [nM] | IC50 [4] [nM] | F [5] [%] | AUC(0-inf) ([5]; IV 2 mg/kg) [ng·h/mL] | AUC(0-t) ([5]; IV 2 mg/kg) [ng·h/mL] | clearance ([5]; IV 2 mg/kg) [mL/min/kg] | half-life ([5]; IV 2 mg/kg) [h] | Cmax [5, 6] [ng/mL] | MRT last ([5]; IV 2 mg/kg) [h] | Vd ([5]; IV 2 mg/kg) [L/kg] | AUC(0-inf) ([5]; PO 10 mg/kg) [ng·h/mL] | AUC(0-t) ([5]; PO 10 mg/kg) [ng·h/mL] | Tmax ([5]; PO 10 mg/kg) [h] | half-life ([5]; PO 10 mg/kg) [h] | Cmax [5, 7] [ng/mL] | MRT last ([5]; PO 10 mg/kg) [h] | Vd/F ([5]; PO 10 mg/kg) [L/kg] | IC50 ([3]; Homo sapiens, OPM-2, 24 h) [nM] | further results
1 | CC(=O)OC1C2=C[C@@H](C2)[C@H](C)[C@@H](C)S(=O)(=O)NC(=O)c2ccc3c(n2)N(C[C@@H]2CC[C@@H]12)C[C@@]1(CCCc2c1ccc(Cl)c2F)CO3 (stereo partly shown) | – | – | – | – | – | – | – | – | – | – | – | – | – | – | – | – | – | – | ring closure, yield of all isomers [1]: 100%
2 | CO[C@H]1C2=CC(C2)[C@H](C)[C@@H](C)S(=O)(=O)NC(=O)c2ccc3c(c2)N(C[C@@H]2CC[C@H]21)C[C@@]1(CCCc2cc(Cl)cc(F)c21)CO3 (single isomer, unassigned) [20 (isomer 1)] | 2000 | 12 | 60.2 | 7500 | 7350 | 4.45 | 6.7 | 6090 | 2.4 | 0.8 | 22600 | 22300 | 1 | 4.9 | 4860 | 3.6 | 3.1 | 2690 | –
3 | CO[C@H]1C2=CC(C2)[C@H](C)[C@@H](C)S(=O)(=O)NC(=O)c2ccc3c(c2)N(C[C@@H]2CC[C@H]21)C[C@@]1(CCCc2cc(Cl)c(F)cc21)CO3 (single isomer, unassigned) [Cpd. No. 21 (isomer 1)] | 1000 | 6.6 | 94.1 | 8780 | 8740 | 3.8 | 3.7 | 5160 | 2.7 | 0.6 | 41300 | 41200 | 2 | 2.8 | 5260 | 4.9 | 9.9 | 1120 | –
4 | C[C@@H]1[C@@H](C)S(=O)(=O)NC(=O)c2ccc3c(c2)N(C[C@@H]2CC[C@H]2[C@@H](OCCN2CCCS2(=O)=O)C2=C[C@H]1C2)C[C@@]1(CCCc2c1ccc(Cl)c2F)CO3 [compound 92, (1S,11′R,12′S,13′R,16′R,16a′R,18a′R)-6-chloro-16′-(2-(1,1-dioxidoisothiazolidin-2-yl)ethoxy)-5-fluoro-11′,12′-dimethyl-3,4,12′,13′,16′,16a′,17′,18′,18a′,19′-decahydro-1′H,2H,3′H,11′H-spiro[naphthalene-1,2′-[5,7]etheno[13,15]methanocyclobuta[i][1,4]oxazepino[3,4-f][1]thia[2,7]diazacyclohexadecin]-8′(9′H)-one 10′,10′-dioxide] | 59 | 14 | – | – | – | – | – | – | – | – | – | – | – | – | – | – | – | 44 | –
5 | CO[C@@]1(CN2CCC(N3CCOCC3)CC2)C2=C[C@@H](C2)[C@H](C)[C@@H](C)S(=O)(=O)NC(=O)c2ccc3c(n2)N(C[C@@H]2CC[C@H]21)C[C@@]1(CCCc2c1ccc(Cl)c2F)CO3 [compound 93, (1S,11′R,12′S,13′R,16′R,16a′R,18a′R)-6-chloro-5-fluoro-16′-methoxy-11′,12′-dimethyl-16′-((4-morpholinopiperidin-1-yl)methyl)-3,4,12′,13′,16′,16a′,17′,18′,18a′,19′-decahydro-1′H,2H,3′H,11′H-spiro[naphthalene-1,2′-[5,7]etheno[13,15]methanocyclobuta[i][1,4]oxazepino[3,4-f][1]thia[2,5,7]triazacyclohexadecin]-8′(9′H)-one 10′,10′-dioxide] | 11 | 19 | – | – | – | – | – | – | – | – | – | – | – | – | – | – | – | 71 | –

Continued by falling IC50 [4], values first:

Row | IC50 ([2]; Homo sapiens, NCI-H929, 24 h) [nM] | IC50 [4] [nM] | F [5] [%] | AUC(0-inf) ([5]; IV 2 mg/kg) [ng·h/mL] | AUC(0-t) ([5]; IV 2 mg/kg) [ng·h/mL] | clearance ([5]; IV 2 mg/kg) [mL/min/kg] | half-life ([5]; IV 2 mg/kg) [h] | Cmax [5, 6] [ng/mL] | MRT last ([5]; IV 2 mg/kg) [h] | Vd ([5]; IV 2 mg/kg) [L/kg] | AUC(0-inf) ([5]; PO 10 mg/kg) [ng·h/mL] | AUC(0-t) ([5]; PO 10 mg/kg) [ng·h/mL] | Tmax ([5]; PO 10 mg/kg) [h] | half-life ([5]; PO 10 mg/kg) [h] | Cmax [5, 7] [ng/mL] | MRT last ([5]; PO 10 mg/kg) [h] | Vd/F ([5]; PO 10 mg/kg) [L/kg] | SMILES | IC50 ([3]; Homo sapiens, OPM-2, 24 h) [nM] | further results
6 | 200 | 48 | – | – | – | – | – | – | – | – | – | – | – | – | – | – | – | C[C@@H]1[C@@H](C)S(=O)(=O)NC(=O)c2ccc3c(c2)N(C[C@@H]2CC[C@H]2[C@@H](OCc2ccccn2)C2=C[C@H]1C2)C[C@@]1(CCCc2c1ccc(Cl)c2F)CO3 [compound 94, (1S,11′R,12′S,13′R,16′R,16a′R,18a′R,E)-6-chloro-5-fluoro-11′,12′-dimethyl-16′-(pyridin-2-ylmethoxy)-3,4,12′,13′,16′,16a′,17′,18′,18a′,19′-decahydro-1′H,2H,3′H,11′H-spiro[naphthalene-1,2′-[5,7]etheno[13,15]methanocyclobuta[i][1,4]oxazepino[3,4-f][1]thia[2,7]diazacyclohexadecin]-8′(9′H)-one 10′,10′-dioxide] | 96 | –
7 | 44 | 23 | – | – | – | – | – | – | – | – | – | – | – | – | – | – | – | C[C@@H]1[C@@H](C)S(=O)(=O)NC(=O)c2ccc3c(c2)N(C[C@@H]2CC[C@H]2[C@@H](OCCN2CCC(F)(F)CC2)C2=C[C@H]1C2)C[C@@]1(CCCc2c1ccc(Cl)c2F)CO3 [compound 95] | 42 | –
8 | 89 | 21 | 57.2 | 5200 | 4780 | 6.4 | 6.5 | 861 | 6.2 | 3.2 | 14900 | 14400 | 4 | 4.5 | 1270 | 6.6 | 4.4 | CO[C@H]1C2=CC(C)(C2)[C@H](C)CS(=O)(=O)NC(=O)c2ccc3c(c2)N(C[C@@H]2CC[C@H]21)C[C@@]1(CCCc2cc(Cl)ccc21)CO3 (mixture of isomers) [13 (mixture)] | 348 | –
9 | 16 | 15 | – | – | – | – | – | – | – | – | – | – | – | – | – | – | – | C[C@@H]1[C@@H](C)S(=O)(=O)NC(=O)c2ccc3c(c2)N(C[C@@H]2CC[C@H]2[C@@H](OCCN2CCN(C)CC2=O)C2=C[C@H]1C2)C[C@@]1(CCCc2c1ccc(Cl)c2F)CO3 [compound 91, (1S,11′R,12′S,13′R,16′R,16a′R,18a′R)-6-chloro-5-fluoro-11′,12′-dimethyl-16′-(2-(4-methyl-2-oxopiperazin-1-yl)ethoxy)-3,4,12′,13′,16′,16a′,17′,18′,18a′,19′-decahydro-1′H,2H,3′H,11′H-spiro[naphthalene-1,2′-[5,7]etheno[13,15]methanocyclobuta[i][1,4]oxazepino[3,4-f][1]thia[2,7]diazacyclohexadecin]-8′(9′H)-one 10′,10′-dioxide] | 59 | –
10 | 18 | 9.7 | 84.7 | 7870 | 7580 | 4.23 | 4.9 | 2740 | 4.8 | 1.5 | 33300 | 33000 | 2 | 3.4 | 2720 | 6.1 | 1.5 | CO[C@H]1C2=C[C@@H](C2)[C@H](C)[C@@H](C)S(=O)(=O)NC(=O)c2ccc3c(c2)N(C[C@@H]2CC[C@H]21)C[C@@]1(CCCc2cc(Cl)ccc21)CO3 (single isomer, unassigned) [Cpd. No. 15 (isomer 1)] | 84 | –
11 | 37 | 9 | 70.5 | 2440 | 2380 | 13.6 | 1.6 | 1260 | 1.9 | 1.7 | 8620 | 8360 | 2 | 4.9 | 1690 | 4.5 | 8.3 | COCCO[C@H]1C2=CC(C2)[C@H](C)[C@@H](C)S(=O)(=O)NC(=O)c2ccc3c(c2)N(C[C@@H]2CC[C@H]21)C[C@@]1(CCCc2cc(Cl)ccc21)CO3 (mixture of isomers) [16 (mixture)] | 136 | –
12 | – | 4.7 | 134.6 | 4720 | 4690 | 7.07 | 3.6 | 1510 | 3.9 | 1.7 | 31800 | 31400 | 2 | 3.6 | 3920 | 5.6 | 1.6 | CO[C@H]1C2=CC(C2)[C@H](C)CS(=O)(=O)NC(=O)c2ccc3c(c2)N(C[C@@H]2CC[C@H]21)C[C@@]1(CCCc2cc(Cl)ccc21)CO3 (single isomer, unassigned) [Cpd. No. 14 (Isomer 1)] | – | IC50 ([2]; 24 h): 26 nM; IC50 ([3]; 24 h): 208 nM
